In experiment [1] the target is T1, EGFR (C797S L858R) (Homo sapiens, UniProt P00533, C797S/L858R).
T1 construct: purchased signalchem
The experiment in a line: Inhibition of EGFR (C797S L858R) biochemical enzymatic activity (HTRF). The following applies: EGFR L858-C797S, 1 mM ATP, 1 h, room temperature, read-out: IC50 (nM) @L858-C797S. The method, boiled down:
(§1)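 1 mM ATP, 1 μM biotin-TK peptide, 5 mM MgCl2, 1 mM MnCl2, 0.01% CHAPS, 1 mM DTT, 0.5% DMSO; 1 h RT; EDTA stop; HTRF 665/615 nm; IC50 via 4PL.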

Experiment [2] concerns the target T2, EGFR (d746-750 C797S) (Homo sapiens, UniProt P00533, C797S/DEL746-750).
T2 construct: purchased signalchem
The experiment in a line: Inhibition of EGFR (d746-750 C797S) biochemical enzymatic activity (HTRF). The conditions noted are these: EGFR Del19-C797S, 1 mM ATP, 1 h, room temperature, read-out: IC50 (nM) @Del19-C797S. The method in brief: as §1
For orientation: TR-FRET usually uses a lanthanide donor and a delayed reading to cut background.

Experiment [3] addresses T3, EGFR L858R/T790M (Homo sapiens, UniProt P00533, L858R/T790M).
T3 construct: purchased Carna Bio
Put plainly: Inhibition of EGFR L858R/T790M biochemical enzymatic activity (HTRF). The conditions noted are these: EGFR L858R-T790M, 1 mM ATP, 1 h, room temperature, read-out: IC50 (nM) @L858R-T790M. The method, boiled down: as §1

Experiment [4] addresses T4, EGFR L858R (Homo sapiens, UniProt P00533, L858R).
T4 construct: purchased Carna Bio
The experiment in a line: Inhibition of EGFR L858R biochemical enzymatic activity (HTRF). The following applies: 1 mM ATP, 1 h, room temperature, read-out: IC50 (nM) @L858R. The method in brief: as §1

Experiment [5] addresses T5, EGFR wild type (Homo sapiens, UniProt P00533).
T5 construct: purchased Carna Bio
Put plainly: Inhibition of EGFR wild type biochemical enzymatic activity (HTRF). The conditions noted are these: EGFR WT, 1 mM ATP, 1 h, room temperature, read-out: IC50 (nM) @WT. The method, boiled down:
as §1

In experiment [6] the target is T6, EGFR Exon19Del (Homo sapiens, UniProt P00533, DEL746-750).
T6 construct: purchased Carna Bio
Put plainly: Inhibition of EGFR Exon19Del biochemical enzymatic activity (HTRF). The conditions noted are these: EGFR Del19, 1 mM ATP, 1 h, room temperature, read-out: IC50 @Del19. The method in brief:
as §1

The target in experiment [7] is T7, EGFR[T790M/C797S/d746-750] (Homo sapiens, UniProt P00533, C797S/DEL746-750/T790M).
T7 construct: purchased Carna Bio
The experiment in a line: Inhibition of EGFR[T790M/C797S/d746-750] biochemical enzymatic activity (HTRF). The following applies: EGFR T790M-C797S-Del19, 1 mM ATP, 1 h, room temperature, read-out: IC50 (nM) @T790M - C797S - Del19. The method in brief: as §1

The target of experiment [8] is T8, EGFR Exon19Del/T790M (Homo sapiens, UniProt P00533, DEL746-750/T790M).
T8 construct: purchased Carna Bio
The experiment in a line: Inhibition of EGFR Exon19Del/T790M biochemical enzymatic activity (HTRF). The following applies: EGFR Del19-T790M, 1 mM ATP, 1 h, room temperature, read-out: IC50 (nM) @Del19-T790M. The method in brief: as §1

Experiment [9] deals with Ba/F3 cells expressing EGFR mutations. The experiment in a line: Cell proliferation assay, Ba/F3 cells expressing EGFR mutations (CellTiter-Glo, 72 hours). The experiment is classed as cell-based. The following applies: CellTiter-Glo. The method, boiled down: (§2)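 Ba/F3 cells carrying EGFR mutants (5000/well) or PC-9 cells (500/well) in RPMI1640 were dosed with compound series after overnight attachment and grown 72 h. Viability read by CellTiter-Glo, with day-0 counts subtracted; GI50 from curve fits of % proliferation versus DMSO control.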
In general terms: In ATP-based viability assays light output follows the ATP content of the culture.

In experiment [10] the test system is A-431. The experiment in a line: Cell proliferation GI50, A-431 cells (Table 6). The experiment is classed as cell-based.
Experiment [11] concerns PC-9. Put plainly: Cell proliferation assay, PC-9 cells (CellTiter-Glo, 72 hours). It counts as cell-based. The following applies: PC9 cells, CellTiter-Glo, read-out: PC9 GI50. The method, boiled down:
as §2

Experiment [12] concerns the target T9, EGFR[T790M/C797S/L858R] (Homo sapiens, UniProt P00533, C797S/L858R/T790M).
T9 construct: purchased Carna Bio
The experiment in a line: Inhibition of EGFR[T790M/C797S/L858R] biochemical enzymatic activity (HTRF). The conditions noted are these: EGFR T790M-C797S-L858R, 1 mM ATP, 1 h, room temperature, read-out: IC50 (nM) @T790M- C797S - L858R. The method in brief:
as §1

Where [13] appears, read: BaF3 cells, EGFR DEL19-C797S, read-out: DEL19-C797S/BaF3 GI50.
[14] abbreviates: BaF3 cells, EGFR DEL19-T790-C797S, read-out: DEL19-T790-C797S/BaF3 GI50.
[15] abbreviates: BaF3 cells, EGFR L858R, read-out: L858R/BaF3 GI50.
Where [16] appears, read: BaF3 cells, EGFR L858R-C797S, read-out: L858R-C797S/BaF3 GI50.
Setting [17] is: BaF3 cells, EGFR L858R-T790-C797S, read-out: L858R-T790-C797S/BaF3 GI50.
[18] abbreviates: BaF3 cells, EGFR L858R-T790M, read-out: L858R-T790M/BaF3 GI50.
Setting [19] is: EGFR DEL19-T790M, read-out: DEL19-T790M GI50.

What is called IC50 is the concentration that inhibits the measured activity by half.

Where two headings read alike, the source gives them in different places.

T8 sequence (P00533 with tags, fused parts or gaps DEL746-750/T790M limits assumed): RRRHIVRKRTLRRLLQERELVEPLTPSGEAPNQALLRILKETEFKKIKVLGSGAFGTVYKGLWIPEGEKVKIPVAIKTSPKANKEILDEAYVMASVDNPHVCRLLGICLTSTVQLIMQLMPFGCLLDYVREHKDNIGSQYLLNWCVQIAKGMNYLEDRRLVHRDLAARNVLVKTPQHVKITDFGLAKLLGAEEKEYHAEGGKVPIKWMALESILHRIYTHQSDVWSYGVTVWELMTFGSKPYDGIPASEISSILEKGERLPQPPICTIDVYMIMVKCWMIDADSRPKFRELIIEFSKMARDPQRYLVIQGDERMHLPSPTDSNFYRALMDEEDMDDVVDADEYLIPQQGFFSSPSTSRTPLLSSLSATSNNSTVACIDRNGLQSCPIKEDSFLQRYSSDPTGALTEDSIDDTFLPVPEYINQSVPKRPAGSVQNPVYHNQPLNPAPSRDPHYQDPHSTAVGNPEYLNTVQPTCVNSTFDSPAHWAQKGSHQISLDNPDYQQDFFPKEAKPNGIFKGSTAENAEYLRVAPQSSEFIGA
T7 sequence (P00533 with tags, fused parts or gaps DEL746-750/T790M/C797S limits assumed): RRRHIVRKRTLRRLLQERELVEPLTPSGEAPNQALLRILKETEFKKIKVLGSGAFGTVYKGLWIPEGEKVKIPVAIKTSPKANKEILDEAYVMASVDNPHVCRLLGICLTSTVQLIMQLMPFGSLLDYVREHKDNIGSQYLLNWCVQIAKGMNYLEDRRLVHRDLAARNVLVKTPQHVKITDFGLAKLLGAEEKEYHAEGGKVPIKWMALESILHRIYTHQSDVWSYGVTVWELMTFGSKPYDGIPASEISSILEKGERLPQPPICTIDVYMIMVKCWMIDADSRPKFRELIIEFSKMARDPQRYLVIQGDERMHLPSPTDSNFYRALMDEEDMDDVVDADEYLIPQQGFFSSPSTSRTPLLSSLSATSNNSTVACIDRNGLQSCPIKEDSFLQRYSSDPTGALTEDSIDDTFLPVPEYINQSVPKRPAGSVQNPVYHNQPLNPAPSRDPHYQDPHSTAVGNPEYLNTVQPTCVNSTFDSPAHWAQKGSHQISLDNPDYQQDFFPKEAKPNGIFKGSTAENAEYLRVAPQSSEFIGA
T3 sequence (P00533 25-1210 T790M/L858R): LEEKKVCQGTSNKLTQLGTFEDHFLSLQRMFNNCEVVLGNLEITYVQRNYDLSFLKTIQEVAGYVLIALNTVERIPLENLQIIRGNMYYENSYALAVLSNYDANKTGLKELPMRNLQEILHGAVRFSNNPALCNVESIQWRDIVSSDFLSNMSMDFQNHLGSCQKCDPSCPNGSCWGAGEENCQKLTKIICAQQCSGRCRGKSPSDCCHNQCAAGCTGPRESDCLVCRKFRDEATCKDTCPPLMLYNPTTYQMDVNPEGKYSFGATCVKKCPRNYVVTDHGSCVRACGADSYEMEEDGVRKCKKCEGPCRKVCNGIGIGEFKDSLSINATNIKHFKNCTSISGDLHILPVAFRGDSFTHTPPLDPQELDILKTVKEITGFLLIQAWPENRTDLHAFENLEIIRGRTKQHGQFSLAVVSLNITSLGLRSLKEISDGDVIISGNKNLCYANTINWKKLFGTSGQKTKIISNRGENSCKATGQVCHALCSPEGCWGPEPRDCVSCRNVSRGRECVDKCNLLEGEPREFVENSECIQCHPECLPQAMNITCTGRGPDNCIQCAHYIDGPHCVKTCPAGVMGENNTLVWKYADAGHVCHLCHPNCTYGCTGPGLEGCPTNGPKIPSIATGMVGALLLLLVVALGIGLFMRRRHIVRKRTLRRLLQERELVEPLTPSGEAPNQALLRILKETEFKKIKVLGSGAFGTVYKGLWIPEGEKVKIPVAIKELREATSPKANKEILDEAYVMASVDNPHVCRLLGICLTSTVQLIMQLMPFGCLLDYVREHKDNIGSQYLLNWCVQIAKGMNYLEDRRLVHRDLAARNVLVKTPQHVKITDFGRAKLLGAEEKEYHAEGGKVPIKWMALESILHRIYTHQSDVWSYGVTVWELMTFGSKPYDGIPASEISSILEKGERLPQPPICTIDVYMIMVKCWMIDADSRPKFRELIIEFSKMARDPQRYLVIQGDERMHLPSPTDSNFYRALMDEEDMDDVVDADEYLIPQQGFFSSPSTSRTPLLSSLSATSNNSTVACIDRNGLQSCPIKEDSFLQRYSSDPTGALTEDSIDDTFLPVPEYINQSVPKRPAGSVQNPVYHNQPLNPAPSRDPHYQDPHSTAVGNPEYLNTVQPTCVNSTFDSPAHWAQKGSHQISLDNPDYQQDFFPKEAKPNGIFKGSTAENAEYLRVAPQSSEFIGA
T1 sequence (P00533 25-1210 C797S/L858R): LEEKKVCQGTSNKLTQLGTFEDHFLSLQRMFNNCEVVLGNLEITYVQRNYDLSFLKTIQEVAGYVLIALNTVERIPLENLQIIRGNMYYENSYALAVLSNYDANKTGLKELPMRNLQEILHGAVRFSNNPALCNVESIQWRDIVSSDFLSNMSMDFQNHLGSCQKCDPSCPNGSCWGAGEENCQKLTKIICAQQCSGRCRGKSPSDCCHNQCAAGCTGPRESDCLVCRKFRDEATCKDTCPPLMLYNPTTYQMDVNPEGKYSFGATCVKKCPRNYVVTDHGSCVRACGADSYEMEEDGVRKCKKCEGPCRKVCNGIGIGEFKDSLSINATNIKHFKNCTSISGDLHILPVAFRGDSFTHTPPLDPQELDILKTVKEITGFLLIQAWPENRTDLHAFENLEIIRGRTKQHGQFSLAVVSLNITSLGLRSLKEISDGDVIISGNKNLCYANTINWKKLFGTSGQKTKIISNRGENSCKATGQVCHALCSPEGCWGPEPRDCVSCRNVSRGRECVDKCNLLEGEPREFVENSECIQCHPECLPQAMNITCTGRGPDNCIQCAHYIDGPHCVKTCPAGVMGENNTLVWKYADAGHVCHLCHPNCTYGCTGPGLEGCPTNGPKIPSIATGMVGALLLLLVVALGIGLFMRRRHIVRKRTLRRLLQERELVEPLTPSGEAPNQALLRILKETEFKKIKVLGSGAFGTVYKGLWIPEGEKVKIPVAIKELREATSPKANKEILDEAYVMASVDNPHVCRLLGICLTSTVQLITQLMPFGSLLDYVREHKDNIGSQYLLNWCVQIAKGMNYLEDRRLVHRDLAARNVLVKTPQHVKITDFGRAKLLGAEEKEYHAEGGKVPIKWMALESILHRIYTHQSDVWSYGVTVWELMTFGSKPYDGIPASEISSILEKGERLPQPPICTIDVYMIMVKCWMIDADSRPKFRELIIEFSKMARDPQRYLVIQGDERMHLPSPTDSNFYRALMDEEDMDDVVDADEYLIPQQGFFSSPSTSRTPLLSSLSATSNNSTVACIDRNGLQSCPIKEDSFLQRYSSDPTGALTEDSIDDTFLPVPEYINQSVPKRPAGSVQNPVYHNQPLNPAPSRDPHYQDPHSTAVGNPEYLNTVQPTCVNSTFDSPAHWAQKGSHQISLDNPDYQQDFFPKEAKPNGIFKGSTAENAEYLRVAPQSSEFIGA
T2 sequence (P00533 with tags, fused parts or gaps DEL746-750/C797S limits assumed): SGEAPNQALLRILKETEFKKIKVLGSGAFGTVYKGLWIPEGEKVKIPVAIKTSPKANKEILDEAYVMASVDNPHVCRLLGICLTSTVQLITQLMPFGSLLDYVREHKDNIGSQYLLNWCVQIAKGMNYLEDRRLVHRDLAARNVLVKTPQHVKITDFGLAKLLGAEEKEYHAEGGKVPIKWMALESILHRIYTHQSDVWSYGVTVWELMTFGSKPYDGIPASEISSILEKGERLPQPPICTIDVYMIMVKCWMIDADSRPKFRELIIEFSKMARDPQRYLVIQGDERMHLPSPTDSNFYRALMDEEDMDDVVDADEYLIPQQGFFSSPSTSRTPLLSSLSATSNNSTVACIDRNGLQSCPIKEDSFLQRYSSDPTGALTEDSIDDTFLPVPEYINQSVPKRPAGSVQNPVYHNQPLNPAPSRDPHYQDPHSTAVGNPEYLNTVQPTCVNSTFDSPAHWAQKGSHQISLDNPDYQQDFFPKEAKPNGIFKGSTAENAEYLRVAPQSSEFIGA
T6 sequence (P00533 with tags, fused parts or gaps DEL746-750 limits assumed): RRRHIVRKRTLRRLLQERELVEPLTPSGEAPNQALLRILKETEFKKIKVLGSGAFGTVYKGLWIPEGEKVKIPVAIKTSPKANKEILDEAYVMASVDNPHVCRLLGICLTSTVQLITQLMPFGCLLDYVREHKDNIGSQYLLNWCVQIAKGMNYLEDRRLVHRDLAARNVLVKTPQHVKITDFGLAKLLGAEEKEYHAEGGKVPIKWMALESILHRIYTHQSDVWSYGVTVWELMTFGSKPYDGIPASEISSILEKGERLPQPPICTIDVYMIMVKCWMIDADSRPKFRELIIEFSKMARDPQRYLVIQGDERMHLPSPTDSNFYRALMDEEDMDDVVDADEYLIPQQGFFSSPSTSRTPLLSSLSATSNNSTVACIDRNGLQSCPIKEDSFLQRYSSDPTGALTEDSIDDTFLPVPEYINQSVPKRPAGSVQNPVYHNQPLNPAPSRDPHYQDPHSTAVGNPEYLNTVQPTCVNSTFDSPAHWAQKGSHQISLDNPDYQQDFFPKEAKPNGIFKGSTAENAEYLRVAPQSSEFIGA

On to `Cn1ncc2c1OCCN1CC3CCC(C3)(C1)n1c(nc3ccc(N4CCC(N5CCOCC5)C4)cc31)NC(=O)c1cc-2c(=O)n(C)c1` (single isomer, unassigned) [Example A104B], for which the IC50 in experiment [1] amounted to 33 nM; in experiment [2] it was 4.5 nM; in experiment [3], 13 nM; in experiment [4], 53 nM; in [5] it was 937 nM; in experiment [6], 6.1 nM. For the same compound, the IC50 was found to be 5.9 nM in experiment [7], 8.5 nM in [8] and 6.6 nM in [12]. In addition, the GI50 in experiment [9] (setting [13]) turned out to be 0.74 nM; in [9] (setting [14]) it was 6.8 nM; in experiment [9] (setting [15]), 12 nM; in experiment [9] (setting [16]), 8.2 nM; in [9] (setting [17]) it was 12 nM; in experiment [9] (setting [18]) it was 19 nM. The GI50 in experiment [9] (setting [19]) is 6.9 nM; in experiment [10] (A-431 cells) it was 1010 nM; in [11] it was 21 nM.

Turning to `CN1CC2CC1CN2c1ccc2nc3n(c2c1)C12CCC(CN(CCOc4c(cnn4C)-c4cc(cn(C)c4=O)C(=O)N3)C1)C2` (single isomer, unassigned) [Example A105B], the IC50 is 3.8 nM in [1]; 1 nM in [2]; 1.8 nM in experiment [3]; 7.3 nM in experiment [4]; 110 nM in [5]; 1.6 nM in experiment [6]. The IC50 in experiment [7] was found to be 1.7 nM; in experiment [8], 2.2 nM; in [12], 1.5 nM. The GI50 in [9] (setting [13]) is 0.76 nM; in [9] (setting [14]), 3.5 nM; in [9] (setting [15]) it was 7.9 nM; in [9] (setting [16]) it was 3.8 nM; in [9] (setting [17]), 7 nM; in experiment [9] (setting [18]), 15 nM. For the same compound, the GI50 was 4.9 nM in experiment [9] (setting [19]); 354 nM in experiment [10] (Homo sapiens, A-431, A-431 cells); 13 nM in [11].

As for `CN1CCN(C2CCN(c3ccc4nc5n(c4c3)C34CCC(CN(CCOc6c(cnn6C)-c6cc(cn(C)c6=O)C(=O)N5)C3)C4)CC2)CC1` (single isomer, unassigned) [Example A106A], the IC50 is more than 5000 nM in experiment [1]; 446 nM in [2]; more than 5000 nM in experiment [3]; 1750 nM in [4]; more than 5000 nM in [5]; 594 nM in experiment [6]. Further, the IC50 is 2820 nM in [7], more than 5000 nM in experiment [8] and more than 5000 nM in experiment [12]. Also, the GI50 in experiment [9] (setting [13]) was 113 nM; in experiment [9] (setting [14]), 322 nM; in experiment [9] (setting [15]) it was 268 nM; in experiment [9] (setting [16]), 143 nM; in experiment [9] (setting [17]) it was 316 nM; in experiment [9] (setting [18]), 392 nM. The results for the GI50 in [9] (setting [19]), in [10] (A-431 cells) and in experiment [11] were 355 nM, 2500 nM and 418 nM, respectively.

On to `CN1CCN(C2CCN(c3ccc4nc5n(c4c3)C34CCC(CN(CCOc6c(cnn6C)-c6cc(cn(C)c6=O)C(=O)N5)C3)C4)CC2)CC1` (single isomer, unassigned) [Example A106B], for which the half-maximal inhibitory concentration (IC50) worked out at 2.2 nM in [1]; 1 nM in experiment [2]; 2.2 nM in [3]; 1.8 nM in experiment [4]; 4.1 nM in experiment [5]; 1.2 nM in experiment [6]. The IC50 worked out at 2 nM in experiment [7], 2.2 nM in experiment [8] and 1.4 nM in [12]. The GI50 in experiment [9] (setting [13]) was 0.79 nM; in [9] (setting [14]), 1.4 nM; in experiment [9] (setting [15]), 1.1 nM; in experiment [9] (setting [16]) it was 2.2 nM; in experiment [9] (setting [17]), 3 nM; in experiment [9] (setting [18]), 1.1 nM. The values for the GI50 in experiment [9] (setting [19]), in experiment [10] (A-431 cells) and in experiment [11] were 1.9 nM, 732 nM and 7.6 nM, respectively.

Regarding `CCN1CCN(c2ccc3nc4n(c3c2)C23CCC(CN(CCOc5c(cnn5C)-c5cc(cn(C)c5=O)C(=O)N4)C2)C3)CC1` (single isomer, unassigned) [Example A107A], the IC50 is 1040 nM in experiment [1]; 245 nM in experiment [2]; more than 5000 nM in experiment [3]; 770 nM in experiment [4]; more than 5000 nM in experiment [5]; 267 nM in experiment [6]. For the same compound, the values for the IC50 in [7], in [8] and in experiment [12] were 2860 nM, 4500 nM and more than 5000 nM, respectively. Further, the GI50 in [9] (setting [13]) stood at 66 nM; in experiment [9] (setting [14]) it was 160 nM; in experiment [9] (setting [15]), 240 nM; in experiment [9] (setting [16]), 105 nM; in [9] (setting [17]) it was 235 nM; in experiment [9] (setting [18]), 332 nM. Also, the values for the GI50 in experiment [9] (setting [19]), in experiment [10] (A-431 cells) and in experiment [11] were 183 nM, 2420 nM and 238 nM, respectively.

For the compound `CCN1CCN(c2ccc3nc4n(c3c2)C23CCC(CN(CCOc5c(cnn5C)-c5cc(cn(C)c5=O)C(=O)N4)C2)C3)CC1` (single isomer, unassigned) [Example A107B], the IC50 in experiment [1] was found to be 1.9 nM; in [2] it was 0.79 nM; in experiment [3], 2.7 nM; in experiment [4], 3 nM; in experiment [5], 20 nM; in [6] it was 1.8 nM. Also, the figures for the IC50 in experiment [7], in experiment [8] and in experiment [12] were 2 nM, 1.8 nM and 2.1 nM, respectively. Also, the GI50 came out at 0.63 nM in experiment [9] (setting [13]); 1.1 nM in experiment [9] (setting [14]); 1 nM in experiment [9] (setting [15]); 2.4 nM in [9] (setting [16]); 1.5 nM in experiment [9] (setting [17]); 4.1 nM in experiment [9] (setting [18]). Moreover, the figures for the GI50 in experiment [9] (setting [19]), in [10] (A-431 cells) and in [11] were 1.5 nM, 267 nM and 5.2 nM, respectively.

On to `CC(C)N1CCN(c2ccc3nc4n(c3c2)C23CCC(CN(CCOc5c(cnn5C)-c5cc(cn(C)c5=O)C(=O)N4)C2)C3)CC1` (single isomer, unassigned) [Example A108A], for which the IC50 is 942 nM in experiment [1]; 268 nM in [2]; more than 5000 nM in [3]; 577 nM in experiment [4]; more than 5000 nM in experiment [5]; 293 nM in [6]. The figures for the IC50 in [7], in experiment [8] and in [12] were 3170 nM, more than 5000 nM and more than 5000 nM, respectively. For the same compound, the GI50 is 84 nM in experiment [9] (setting [13]); 204 nM in experiment [9] (setting [14]); 202 nM in experiment [9] (setting [15]); 123 nM in experiment [9] (setting [16]); 223 nM in experiment [9] (setting [17]); 369 nM in [9] (setting [18]). Further, the GI50 in experiment [9] (setting [19]) amounted to 227 nM; in [10] (A-431 cells) it was 1380 nM; in experiment [11], 320 nM.
